Data on 15 molecules can be found in ChEMBL document CHEMBL1201862, “PubChem BioAssay data set” (2004).

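96-well plates; 48 h exposure; 5 concentrations. Endpoints by linear interpolation between flanking doses. Not reached: highest tested concentration assigned. Here, GI50 denotes the concentration required for 50% inhibition of growth.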 Activity calls are given as the source filed them. No stated cut-off is given here; in the data, active = GI50 up to about 1.1 µM and inactive = higher.

Assay in all cases: growth of human tumour cells (NCI), 48 h
The test system of assay [1] is OVCAR-3.
For assay [2], the system named is SW-620.
Assay [3] concerns SK-MEL-5.
Assay [4] relates to SF-295.
The subject of assay [5] is SR.
Assay [6] concerns NCI-H23.
In assay [7] the test system is HCT-116.
Assay [8] deals with CAKI-1.
Assay [9] has as its system NCI-H460.
Assay [10] has as its system LOX IMVI.
Assay [11] relates to SNB-19.
Assay [12] has as its system OVCAR-4.
The subject of assay [13] is SK-OV-3.
Assay [14] has as its system IGROV-1.
Assay [15] deals with UACC-62.

Take `c1cnc2c(c1)-n1cccc1C1(CCSC1)NN2` (stereo unspecified): the GI50 in assay [1], in assay [2], in [3], in assay [4], in assay [5] and in assay [6] was > 100 µM (inactive) in each case. The GI50 in assay [7], in assay [8], in assay [9], in [10], in assay [11] and in [12] was > 100 µM (inactive) throughout.
With `Cn1nc(-c2ccccc2)c2c(/C=C/c3ccccc3)onc2c1=O`, the GI50 was 50.6 µM (inactive) in assay [1]; > 100 µM (inactive) in [3]; 43.8 µM (inactive) in assay [13]; 38.9 µM (inactive) in [4]; 95.7 µM (inactive) in [5]; > 100 µM (inactive) in [6]. Further, the GI50 in assay [7] was > 100 µM (inactive); in assay [8], 69 µM (inactive); in assay [9], > 100 µM (inactive); in assay [14], > 100 µM (inactive); in assay [10], > 100 µM (inactive); in assay [11], 67.3 µM (inactive). In addition, the GI50 in assay [15] was 23.8 µM (inactive).
For `NCC(=O)OCN1C(=O)C2C3C=CC(C2C1=O)C1C2C(=O)N(COC(=O)CN)C(=O)C2C31` (stereo unspecified), the GI50 in assay [1] is 35.7 µM (inactive); in assay [2], 22.4 µM (inactive); in assay [3], 25.5 µM (inactive); in [13], 76.9 µM (inactive); in [4], > 100 µM (inactive); in assay [6], 21.1 µM (inactive). The GI50 in assay [7] is 16.9 µM (inactive); in assay [8], 53.5 µM (inactive); in assay [9], 16.6 µM (inactive); in assay [14] it was 41.8 µM (inactive); in assay [10], 20 µM (inactive); in assay [11] it was 71.3 µM (inactive). The GI50 was 23 µM (inactive) in assay [15] and 20 µM (inactive) in assay [12].
In the case of `Cc1ccc(NC(=O)CC(=O)N2N=C(N(CCC#N)c3cccc(C)c3)CC2c2ccccc2)cc1` (stereo unspecified), the GI50 in [1], in assay [2], in assay [3], in [13], in assay [4] and in assay [5] was > 100 µM (inactive) in each case. Moreover, the GI50 in assay [6], in [7], in assay [9], in assay [14], in assay [11] and in assay [15] was > 100 µM (inactive) throughout. For the same molecule, the GI50 in assay [12] is > 100 µM (inactive).
As to `NC(CCC(=O)Nc1ccc(O)cc1)C(=O)O` (stereo unspecified), the GI50 in assay [1], in assay [2], in assay [3], in [13], in [5] and in [7] was > 100 µM (inactive) each time. In addition, the GI50 in assay [8], in assay [9], in [10], in assay [11], in assay [15] and in [12] was > 100 µM (inactive) throughout.
Consider `N#CC1(c2nc3ccccc3o2)C(=O)C(=O)N(c2ccc(Cl)c(Cl)c2)C(=O)C1=O`, for which the GI50 in assay [1], in assay [2], in [3], in [4], in assay [6] and in assay [8] was > 100 µM (inactive) in each case. The GI50 was > 100 µM (inactive) in [9], > 100 µM (inactive) in assay [10], > 100 µM (inactive) in assay [11] and 58.6 µM (inactive) in assay [12].
`Cc1cc2c(cc1CO)N1Cc3cc(C)c(CO)cc3N(C2)C1`: the GI50 in assay [1], in [2], in assay [3], in assay [13], in assay [4] and in [6] was > 100 µM (inactive) throughout. Also, the GI50 in [7], in [9], in [14], in [10], in assay [11] and in assay [15] was > 100 µM (inactive) in each case. In assay [12], the GI50 was > 100 µM (inactive).
As for `N#CC12CCC(O)C(CC1)C2=O` (stereo unspecified), the GI50 was > 100 µM (inactive) in [1]; > 100 µM (inactive) in assay [3]; > 100 µM (inactive) in [13]; > 100 µM (inactive) in assay [4]; 27.3 µM (inactive) in assay [5]; > 100 µM (inactive) in [6]. In addition, the GI50 in assay [7] was 73.1 µM (inactive); in assay [8] it was > 100 µM (inactive); in [9] it was 70 µM (inactive); in assay [14], > 100 µM (inactive); in [10], 21.5 µM (inactive); in assay [11], > 100 µM (inactive). Further, the GI50 in [15] and in assay [12] was > 100 µM (inactive) in each case.
`CC(C)(C)c1cc(COc2c3sc(=S)sc3c(OCc3cc(C(C)(C)C)cc(C(C)(C)C)c3)c3sc(=S)sc23)cc(C(C)(C)C)c1`: the GI50 in assay [1], in assay [2], in assay [3], in assay [13], in assay [4] and in [6] was > 100 µM (inactive) in each case. Besides, the GI50 in assay [7], in [8], in assay [9], in assay [14], in assay [10] and in [11] was > 100 µM (inactive) in each case. Also, the GI50 in assay [15] and in assay [12] was > 100 µM (inactive) each time.
In the case of `O=C1C(O)=C(CN(CCCl)CCCl)C(=O)c2ccccc21`, the GI50 was 45.1 µM (inactive) in assay [1]; 53.2 µM (inactive) in assay [2]; 52.6 µM (inactive) in assay [3]; > 100 µM (inactive) in assay [13]; 70.3 µM (inactive) in assay [4]; 35.6 µM (inactive) in assay [5]. Also, the GI50 in assay [6] is 68.9 µM (inactive); in assay [7] it was 34.4 µM (inactive); in [8], 39.7 µM (inactive); in assay [9], 29.2 µM (inactive); in assay [14] it was 20.5 µM (inactive); in [11], 50 µM (inactive). Besides, the GI50 is 39.6 µM (inactive) in [15] and > 100 µM (inactive) in [12].
Take `CC1CC2(CC[C@@H]1O)OCCO2` (stereo partly specified): the GI50 in assay [1], in assay [2], in [3], in [13], in assay [4] and in assay [6] was > 100 µM (inactive) each time. Besides, the GI50 in assay [7], in assay [8], in assay [9], in assay [14], in [10] and in assay [11] was > 100 µM (inactive) in each case. Besides, the GI50 in assay [15] and in assay [12] was > 100 µM (inactive) throughout.
In the case of `COc1nc(NC2OCC(O)C(O)C2O)c(NC2OCC(O)C(O)C2O)c(=O)n1C` (stereo unspecified), the GI50 in assay [1], in assay [2], in assay [13], in [4], in assay [5] and in assay [6] was > 100 µM (inactive) throughout. The GI50 in assay [7], in [9], in [14], in assay [10], in assay [11] and in assay [15] was > 100 µM (inactive) throughout. Also, in assay [12], the GI50 is > 100 µM (inactive).
For `CC(C)N1C(C)[C@@H](c2ccccc2)O[P@@]1(=O)CC1=CCCCC1` (stereo partly specified), the GI50 in assay [1] was 79.3 µM (inactive); in assay [2], > 100 µM (inactive); in [3], 55.6 µM (inactive); in assay [13] it was > 100 µM (inactive); in [4] it was 57 µM (inactive); in [5], 69.5 µM (inactive). The GI50 in assay [6] is > 100 µM (inactive); in [7] it was 90.2 µM (inactive); in assay [9] it was > 100 µM (inactive); in assay [14] it was > 100 µM (inactive); in assay [10], > 100 µM (inactive); in assay [15] it was 47.1 µM (inactive).
Turning to `COc1ccc(N/N=C(\CCN(C)C)c2ccccc2)cc1`, the GI50 is 2.81 µM (inactive) in assay [1]; 2.86 µM (inactive) in assay [2]; 6.37 µM (inactive) in assay [3]; 3.41 µM (inactive) in assay [13]; 0.437 µM (active) in assay [4]; 3.17 µM (inactive) in [5]. The GI50 is 4.43 µM (inactive) in [6]; 3.56 µM (inactive) in assay [7]; 3.12 µM (inactive) in assay [9]; 4.18 µM (inactive) in assay [14]; 2.07 µM (inactive) in assay [10]; 3.01 µM (inactive) in assay [11]. Moreover, the GI50 in [15] is 1.9 µM (inactive); in [12], 4.67 µM (inactive).
Turning to `NC1CC(n2ccc(=O)[nH]c2=O)OC1C(O)CO` (stereo unspecified), the GI50 in assay [1], in assay [2], in [3], in assay [13], in assay [4] and in [5] was > 100 µM (inactive) in each case. The GI50 in assay [6], in assay [7], in assay [9], in assay [14], in [10] and in [11] was > 100 µM (inactive) in each case. Moreover, the GI50 in [15] and in assay [12] was > 100 µM (inactive) in each case.
